In patent US20090017103A1, “Antisense oligonucleotides for prevention of metastasis formation of cancer cells” (priority 2003, published 2009):
Values joined by “and” are separate entries in the source; they are usually repeats but may differ in a detail not shown here. Equal values may be shown once. “Also recorded” adds a separate entry of the source. Marks after values point to notes of the source that are not given here.

Tests used:
[1] = test system: MDA-MB-231 breast cancer cells; assay: Clonogenicity assay (colony formation); type: cell-based, human; settings: for inhibition of colony formation (colony growth inhibition): single exposure; for reduction of colony counts: twofold exposure; for repeated exposure compared with single exposure, colony formation (in words): twofold vs single ASO exposure
Outline: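 MDA-MB-231 cells given lipofectamine-complexed ASO (5, 10 or 20 μM, 12 h) and/or ErPC3 (10, 14, 20 μM, 24 h), singly or in sequential cycles, then grown 48-72 h. 5000 cells plated in methylcellulose/30% FBS; MTT-stained colonies (≥30 cells) counted after 5-7 days.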

[2] = test system: MDA-MB-231^GFP cells; assay: In vivo treatment with mini-osmotic pumps (osteolytic bone metastasis model);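 as to Mean size of lesion: mean lesion size in relative units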;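 as to Size of lesion (per animal): lesion size in relative units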; set-up: species or system nude rats; settings: for X-ray scan of hind legs: lytic lesions (in words): FIG. 5-7; for T/C: vs NSO control; for T/C × 100: mean lesion size vs NSO control rats; for Incidence of metastasis: mini-osmotic pumps s.c., 7 mg/kg daily over four weeks
[3] = test system: MDA-MB-231^GFP cells; assay: In vivo model with pretreated MDA-MB-231^GFP cells (osteolytic bone metastasis);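 as to Mean size of lesion: mean lesion size in relative units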; set-up: species or system nude rats; lesion size of the rat(s) that developed lytic metastasis, % of control / lesion sizes with respect to all animals of the group compared to untreated control / lesion size of individual animal compared to the untreated control / T/C % (mean lesion size compared to untreated control): concentration or dose not given beside the values; settings: for T/C × 100: mean lesion size vs untreated control rats; for X-ray scan of hind legs: osteolytic lesions (in words): FIG. 3 and FIG. 4, one rat each, cells pre-exposed; for rats in which formation of osteolytic metastasis was inhibited (no visible metastasis): cells pre-exposed to ASO, observation period of eight weeks; for Incidence of metastasis: cells pretreated in vitro (10 μM)
[4] = Exp. III a, repeated exposure 2 × 5 μM
[5] = Exp. III a, repeated exposure 2 × 5 μM, control 456
[6] = Exp. III a, repeated exposure 2 × 10 μM
[7] = Exp. III a, repeated exposure 2 × 10 μM, control 456
[8] = Exp. III a, repeated exposure 2 × 20 μM
[9] = Exp. III a, repeated exposure 2 × 20 μM, control 456
[10] = Experiment I, single treatment, 5 μM
[11] = Experiment I, single treatment, 5 μM, control 778
[12] = Experiment I, single treatment, 10 μM
[13] = Experiment I, single treatment, 10 μM, control 778
[14] = Experiment I, single treatment, 20 μM
[15] = Experiment I, single treatment, 20 μM, control 778
[16] = Experiment III b, repeated exposure 2 × 5 μM
[17] = Experiment III b, repeated exposure 2 × 5 μM, control 517
[18] = Experiment III b, repeated exposure 2 × 10 μM
[19] = Experiment III b, repeated exposure 2 × 10 μM, control 517
[20] = Experiment III b, repeated exposure 2 × 20 μM
[21] = Experiment III b, repeated exposure 2 × 20 μM, control 517
[22] = eight weeks after tumor cell implantation
[23] = four weeks after tumor cell implantation, therapy from implantation
[24] = six weeks after tumor cell implantation
[25] = ten weeks after tumor cell implantation
[26] = observation period 4 weeks, pretreated cells
[27] = observation period 6 weeks, pretreated cells
[28] = observation period 8 weeks, pretreated cells
[29] = pretreated cells, after eight weeks
[30] = pretreated cells, week 4, vs mean of the two control groups (197 R.U.)
[31] = pretreated cells, week 8, vs mean of the two control groups (416 R.U.)
[32] = pretreated cells, after four weeks

5′-CTAACTTAAAAAACAAAAGA-3′ (antisense CTAACTTAAAAAACAAAAGA; all phosphorothioate, sugars by position and methylation of C not given here) [ASO-OPN-4]
% Control [1, 4]: 84% | Mean colony no. [1, 5]: 381^6,8) | % Control [1, 6]: 51% | Mean colony no. [1, 7]: 233^7,8) | % Control [1, 8]: 40% | Mean colony no. [1, 9]: 181^7) | % Control [1, 10]: 85% | Mean colony no. [1, 11]: 658^6) | % Control [1, 12]: 61% | Mean colony no. [1, 13]: 475^7) | % Control [1, 14]: 53% | Mean colony no. [1, 15]: 416 | % Control [1, 16]: 63% | Mean colony no. [1, 17]: 330^6,8) | % Control [1, 18]: 57% | Mean colony no. [1, 19]: 296^7,8) | % Control [1, 20]: 50% | Mean colony no. [1, 21]: 258^8) | inhibition of colony formation (colony growth inhibition) ([1]; 5 μM): 15% | inhibition of colony formation (colony growth inhibition) ([1]; 10 μM): 39% | inhibition of colony formation (colony growth inhibition) ([1]; 20 μM, listed as ASO-OPN-04, 20 µM): 47% and 46% | reduction of colony counts ([1]; 5 μM): 16% | reduction of colony counts ([1]; 20 μM): 60% | repeated exposure compared with single exposure, colony formation (in words) [1]: more effective than single exposure | X-ray scan of hind legs: lytic lesions (in words) [2, 22]: clear increase of lytic lesions in the tibia, however new formation of bone tissue at the edges of the lesions | X-ray scan of hind legs: lytic lesions (in words) [2, 23]: small lytic lesions in the tibia | X-ray scan of hind legs: lytic lesions (in words) [2, 24]: visible lytic lesions in the tibia | X-ray scan of hind legs: lytic lesions (in words) [2, 25]: a decrease of the lesions is clearly visible | T/C ([2]; mini-osmotic pumps, week 4): 58% | T/C ([2]; mini-osmotic pumps, week 12): 26% | T/C × 100 ([2]; week 4): 58 | Mean size of lesion ([2]; week 4, mini-osmotic pumps): 19 R.U. | Size of lesion (per animal) ([2]; week 4, mini-osmotic pumps): 20 R.U. and 41 R.U. and 0 R.U. (2×) and 34 R.U. | Incidence of metastasis ([2]; week 4, 7 mg/kg): three out of five and 3/5 | T/C × 100 ([2]; week 6): 41 | Mean size of lesion ([2]; week 6, mini-osmotic pumps): 73 R.U. | Size of lesion (per animal) ([2]; week 6, mini-osmotic pumps): 35 R.U. and 285 R.U. and 0 R.U. (2×) and 46 R.U. | Incidence of metastasis ([2]; week 6): 3/5 | T/C × 100 ([2]; week 8): 45 | Mean size of lesion ([2]; week 8, mini-osmotic pumps): 124 R.U. | Size of lesion (per animal) ([2]; week 8, mini-osmotic pumps): 117 R.U. and 415 R.U. and 27 R.U. and 60 R.U. and 0 R.U. | Incidence of metastasis ([2]; week 8): 4/5 | T/C × 100 ([2]; week 9): 48 | Mean size of lesion ([2]; week 9, mini-osmotic pumps): 134 R.U. | Size of lesion (per animal) ([2]; week 9, mini-osmotic pumps): 435 R.U. and 123 R.U. and 53 R.U. and 57 R.U. and 0 R.U. | Incidence of metastasis ([2]; week 9): 4/5 | T/C × 100 ([2]; week 10): 29 | Mean size of lesion ([2]; week 10, mini-osmotic pumps): 124 R.U. | Size of lesion (per animal) ([2]; week 10, mini-osmotic pumps): 74 R.U. and 67 R.U. and 45 R.U. and 0 R.U. | Incidence of metastasis ([2]; week 10): 4/5 | T/C × 100 ([2]; week 12): 26 | Mean size of lesion ([2]; week 12, mini-osmotic pumps): 112 R.U. | Size of lesion (per animal) ([2]; week 12, mini-osmotic pumps): 31 R.U. (2×) and 64 R.U. and 0 R.U. | Incidence of metastasis ([2]; week 12): 3 | T/C × 100 ([3]; 4 weeks): 3.9 | T/C × 100 ([3]; 6 weeks): 3.8 | T/C × 100 ([3]; 8 weeks): 4.3 | X-ray scan of hind legs: osteolytic lesions (in words) ([3]; listed as ASO-OPN-04): no osteolysis; also recorded: no visible lytic lesions | rats in which formation of osteolytic metastasis was inhibited (no visible metastasis) ([3]; listed as ASO-OPN-04): Three of four and 3 of 4 | Incidence of metastasis ([3]; observation period 4 weeks): 1/4 | Mean size of lesion [3, 26]: 8.5 R.U. | Incidence of metastasis ([3]; observation period 6 weeks): 1/4 | Mean size of lesion [3, 27]: 11.5 R.U. | Incidence of metastasis ([3]; observation period 8 weeks): 1/4^4) | Mean size of lesion [3, 28]: 15 R.U. | T/C % (mean lesion size compared to untreated control) [3, 29]: 4.3% | lesion sizes with respect to all animals of the group compared to untreated control ([3]; pretreated cells, over observation period week 4 to week 8): about 4% | lesion sizes of the one metastasis-bearing animal compared to the control ([3]; pretreated cells, overall observation period (8 weeks)): about 16% | lesion size of the rat(s) that developed lytic metastasis ([3]; pretreated cells, week 4): 34 R.U. | lesion size of the rat(s) that developed lytic metastasis, % of control [3, 30]: 17% | lesion size of the rat(s) that developed lytic metastasis ([3]; pretreated cells, week 8): 60 R.U. | lesion size of the rat(s) that developed lytic metastasis, % of control [3, 31]: 17%

5′-GCT-TTC-TTC-GTT-TTC-ATT-TC-3′ [ASO-BSPII-6]
% Control [1, 4]: 91% | Mean colony no. [1, 5]: 415^6,8) | % Control [1, 6]: 82% | Mean colony no. [1, 7]: 373^8) | % Control [1, 8]: 72% | Mean colony no. [1, 9]: 326^8) | % Control [1, 10]: 89% | Mean colony no. [1, 11]: 692^6) | % Control [1, 12]: 81% | Mean colony no. [1, 13]: 632^7) | % Control [1, 14]: 61% | Mean colony no. [1, 15]: 478 | % Control [1, 16]: 70% | Mean colony no. [1, 17]: 363^6,8) | % Control [1, 18]: 55% | Mean colony no. [1, 19]: 282^8) | % Control [1, 20]: 49% | Mean colony no. [1, 21]: 251^8) | inhibition of colony formation (colony growth inhibition) ([1]; 5 μM): 11% | inhibition of colony formation (colony growth inhibition) ([1]; 10 μM): 19% | inhibition of colony formation (colony growth inhibition) ([1]; 20 μM): 39% | repeated exposure compared with single exposure, colony formation (in words) [1]: no increased inhibition of colony formation as compared with single exposure | X-ray scan of hind legs: lytic lesions (in words) [2, 22]: clear increase of lytic lesions in the tibia, however new formation of bone tissue at the edges of the lesions | X-ray scan of hind legs: lytic lesions (in words) [2, 23]: small lytic lesions in the tibia | X-ray scan of hind legs: lytic lesions (in words) [2, 24]: visible lytic lesions in the tibia | X-ray scan of hind legs: lytic lesions (in words) [2, 25]: lytic lesions are no longer visible in the region of the tibia | animals that did not develop metastases ([2]; mini-osmotic pumps, 12 weeks): one animal out of the five | T/C ([2]; mini-osmotic pumps, week 4): 39% | T/C ([2]; mini-osmotic pumps, week 12): 2% | T/C × 100 ([2]; week 4): 39 | Mean size of lesion ([2]; week 4, mini-osmotic pumps): 13 R.U. | Size of lesion (per animal) ([2]; week 4, mini-osmotic pumps): 11 R.U. and 0 R.U. and 32 R.U. and 8 R.U. and 23 R.U. | Incidence of metastasis ([2]; week 4): 4/5 | T/C × 100 ([2]; week 6): 18 | Mean size of lesion ([2]; week 6, mini-osmotic pumps): 32 R.U. | Size of lesion (per animal) ([2]; week 6, mini-osmotic pumps): 39 R.U. and 0 R.U. (2×) and 83 R.U. and 37 R.U. | Incidence of metastasis ([2]; week 6): 3/5 | T/C × 100 ([2]; week 8): 11 | Mean size of lesion ([2]; week 8, mini-osmotic pumps): 29 R.U. | Size of lesion (per animal) ([2]; week 8, mini-osmotic pumps): 52 R.U. and 0 R.U. (2×) and 50 R.U. and 43 R.U. | Incidence of metastasis ([2]; week 8): 3/5 | T/C × 100 ([2]; week 9): 7 | Mean size of lesion ([2]; week 9, mini-osmotic pumps): 28 R.U. | Size of lesion (per animal) ([2]; week 9, mini-osmotic pumps): 28 R.U. and 0 R.U. (2×) and 36 R.U. and 78 R.U. | Incidence of metastasis ([2]; week 9): 3/5 | T/C × 100 ([2]; week 10): 5 | Mean size of lesion ([2]; week 10, mini-osmotic pumps): 20 R.U. | Size of lesion (per animal) ([2]; week 10, mini-osmotic pumps): 17 R.U. and 0 R.U. (2×) and 29 R.U. and 52 R.U. | Incidence of metastasis ([2]; week 10): 3/5 | T/C × 100 ([2]; week 12): 2 | Mean size of lesion ([2]; week 12, mini-osmotic pumps): 9 R.U. | Size of lesion (per animal) ([2]; week 12, mini-osmotic pumps): 0 R.U. (3×) and 18 R.U. and 29 R.U. | Incidence of metastasis ([2]; week 12): 2/5 | T/C × 100 ([3]; 4 weeks): 1.6 | T/C × 100 ([3]; 6 weeks): 2.9 | T/C × 100 ([3]; 8 weeks): 9.1 | X-ray scan of hind legs: osteolytic lesions (in words) [3]: a minute osteolytic lesion in the tibia only; also recorded: a small lesion in the tibia | rats in which formation of osteolytic metastasis was inhibited (no visible metastasis) [3]: two out of four | rats in which formation of osteolytic metastasis was inhibited (no visible metastasis) ([3]; listed as ASO-BSPII-06): two of four and 2 of 4 | Incidence of metastasis ([3]; observation period 4 weeks): 1/4 | Mean size of lesion [3, 26]: 3.5 R.U. | Incidence of metastasis ([3]; observation period 6 weeks): 1/4 | Mean size of lesion [3, 27]: 8.8 R.U. | Incidence of metastasis ([3]; observation period 8 weeks): 2/4 | Mean size of lesion [3, 28]: 31.5 R.U. | Size of lesion (per animal) [3, 28]: 106^5) R.U. | T/C % (mean lesion size compared to untreated control) [3, 29]: 9.1% | lesion size of individual animal compared to the untreated control [3, 29]: about 30% and 6% | animals in which formation of lytic metastases was prevented [3, 32]: three out of four | lesion size of individual animal compared to the untreated control [3, 32]: 6.4% | lesion size of individual animal compared to the untreated control ([3]; pretreated cells, after six weeks): about 12% | lesion size of the rat(s) that developed lytic metastasis ([3]; pretreated cells, week 4): 14 R.U. | lesion size of the rat(s) that developed lytic metastasis, % of control [3, 30]: 7% | lesion size of the rat(s) that developed lytic metastasis ([3]; pretreated cells, week 8): 63 R.U. | lesion size of the rat(s) that developed lytic metastasis, % of control [3, 31]: 15%
